# Assay results published in patent US20100298302A1, “NOVEL PROTEIN KINASE MODULATORS” (priority 2009, published 2010).
# Like-named read-outs stand apart in the source and are kept apart here.
# What was measured:
# [1] = test system: K-562 human chronic myelogenous leukemia (CML) cells; assay: Alamar Blue cell proliferation assay, K-562; format: cell-based
# Protocol: (§1) A representative cell-proliferation assay protocol using Alamar Blue dye (stored at 4° C., use 20 ul per well) is described hereafter.
# (§2) a. Split and trypsinize cells.
# (§3) b. Count cells using hemocytometer.
# (§4) c. Plate 4,000-5,000 cells per well in 100 μl of medium and seed into a 96-well plate according to the following plate layout. Add cell culture medium only to wells B10 to B12. Wells B1 to B9 have cells but no compound added.
# (§5) d. Add 100 μl of 2× drug dilution to each well in a concentration shown in the plate layout above. At the same time, add 100 μl of media into the control wells (wells B10 to B12). Total volume is 200 μl/well.
# (§6) e. Incubate four (4) days at 37° C., 5% CO2 in a humidified incubator.
# (§7) f. Add 20 μl Alamar Blue reagent to each well.
# (§8) g. Incubate for four (4) hours at 37° C., 5% CO2 in a humidified incubator.
# (§9) h. Record fluorescence at an excitation wavelength of 544 nm and emission wavelength of 590 nm using a microplate reader.
# (§10) In the assays, cells are cultured with a test compound for approximately four days, the dye is then added to the cells and fluorescence of […] dye is detected after approximately four hours. Different types of cells can be utilized in the assays (e.g., HCT-116 human colorectal carcinoma cells, PC-3 human prostatic cancer cells, MDA-MB231 human breast cancer cells, K-562 human chronic myelogenous leukemia (CML) cells, MiaPaca human pancreatic carcinoma cells, MV-4 human acute myeloid leukemia cells, and BxPC3 human pancreatic adenocarcinoma cells).
# MV-4-11 = assay: Alamar Blue cell proliferation assay, MV-4-11; format: cell-based; details: Homo sapiens, MV4-11
# Protocol: as §1, §2, §3, §4, §5, §6, §7, §8, §9, §10
# recombinant PIM-1 = recombinant PIM-1 (Homo sapiens, UniProt P11309); assay: PIM-1 kinase assay; format: biochemical; details: for inhibition at 0.5 µM: 500 nM compound, read-out: PIM1: % inh 500 nM
# Chain of recombinant PIM-1 (P11309 whole entry): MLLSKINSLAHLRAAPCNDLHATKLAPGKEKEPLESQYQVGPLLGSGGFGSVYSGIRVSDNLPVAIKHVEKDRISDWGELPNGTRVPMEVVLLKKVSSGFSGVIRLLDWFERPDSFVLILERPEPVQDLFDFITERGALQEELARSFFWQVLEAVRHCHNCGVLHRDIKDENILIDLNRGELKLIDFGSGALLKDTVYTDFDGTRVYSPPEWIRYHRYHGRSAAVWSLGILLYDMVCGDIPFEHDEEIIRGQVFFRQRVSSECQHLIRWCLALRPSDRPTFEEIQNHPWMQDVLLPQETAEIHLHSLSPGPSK
# Protocol: The following procedure was used to assay the PIM-1 kinase activity of compounds of the invention. Other methods for assaying PIM-1 and other PIM kinases, as well as methods to assay for activity against various kinases known in the art.
# In a final reaction volume of 50 ul, recombinant PIM-1 (1 ng) was incubated with 12 mM MOPS pH 7.0, 0.4 mM EDTA, glycerol 1%, brij 35 0.002%, 2-mercaptoethanol 0.02%, BSA 0.2 mg/ml, 100 uM KKRNRTLTK, 10 mM MgAcetate, 15 uM ATP, [γ-^33P-ATP] (specific activity approx. 500 cpm/pmol), DMSO 4% and test inhibitor compound at the required concentration. The reaction was initiated by the addition of the Magnesium ATP mixture. After 40 min incubation at 23° C., the reactions were quenched by the addition of 100 ul 0.75% Phosphoric acid, and the labeled peptide collected by filtration through a phosphocellulose filter plate. The plate was washed 4 times with 0.075% phosphoric acid (100 ul per well) and then, after the addition of scintillation fluid (20 ul per well), the counts were measured by a scintillation counter.
# [2] = test system: MiaPaca human pancreatic carcinoma cells; assay: Alamar Blue cell proliferation assay, MiaPaCa; format: cell-based; details: MIA PaCa-2
# Protocol: as §1, §2, §3, §4, §5, §6, §7, §8, §9, §10
# [3] = test system: MDA-MB231 human breast cancer cells; assay: Alamar Blue cell proliferation assay, MDA-MB231; format: cell-based; details: MDA-MB-231, read-out: MDAMB231 IC50
# Protocol: as §1, §2, §3, §4, §5, §6, §7, §8, §9, §10
# [4] = test system: PC-3 human prostatic cancer cells; assay: Alamar Blue cell proliferation assay, PC3; format: cell-based
# Protocol: as §1, §2, §3, §4, §5, §6, §7, §8, §9, §10
# recombinant human PIM2 = recombinant human PIM2 (Homo sapiens, UniProt Q9P1W9); assay: PIM-2 kinase assay; format: biochemical
# Chain of recombinant human PIM2 (Q9P1W9 whole entry): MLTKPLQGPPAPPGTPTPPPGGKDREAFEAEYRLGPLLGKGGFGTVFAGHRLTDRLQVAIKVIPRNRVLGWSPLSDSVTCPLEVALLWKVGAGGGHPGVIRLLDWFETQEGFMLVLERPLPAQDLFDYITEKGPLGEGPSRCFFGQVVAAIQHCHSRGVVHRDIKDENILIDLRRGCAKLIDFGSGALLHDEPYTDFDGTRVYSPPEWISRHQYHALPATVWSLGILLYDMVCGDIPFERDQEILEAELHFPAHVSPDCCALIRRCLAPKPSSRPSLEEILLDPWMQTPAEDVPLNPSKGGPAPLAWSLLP
# Protocol: Test compounds dissolved and diluted in DMSO (2 μl) were added to a reaction mixture comprising 10 μl of 5× Reaction Buffer (40 mM MOPS pH 7.0, 5 mM EDTA), 10 μl of recombinant human PIM2 solution (4 ng PIM-2 dissolved in dilution buffer (20 mM MOPS pH 7.0; EDTA 1 mM; 5% Glycerol; 0.01% Brij 35; […]; […] 2-mercaptoethanol; 1 mg/ml BSA)) and 8 ul of water. Reactions were initiated by the addition of 10 ul of ATP Solution ([…] (15 mM MgCl2; 75 uM ATP) 1% ([γ-33P]ATP: Stock 1 mCi/100 μl; 3000 Ci/mmol (Perkin Elmer)) and 10 ul of substrate peptide solution (RSRSSYPAGT, dissolved in water at a concentration of 1 mM), Reactions were maintained for 10 min at 30° C. The reactions were quenched with 100 ul of 0.75% Phosphoric acid, then transferred to and filtered through a Phosphocellulose filter plate (Millipore, MSPH-N6B-50). After washing each well 4 times with 0.75% Phosphoric acid, scintillation fluid (20 uL) was added to each well and the residual radioactivity was measured using a Wallac luminescence counter.
# SUM-149PT = assay: Alamar Blue cell proliferation assay, SUM-149PT; format: cell-based; details: Homo sapiens, SUM149PT
# Protocol: as §1, §2, §3, §4, §5, §6, §7, §8, §9, §10
# recombinant human CK2 = target: T1, recombinant human CK2 (Homo sapiens, UniProt P68400); assay: cell-free CK2 assay; format: biochemical
# T1 construct: purchased Upstate
# T1 sequence (P68400 whole entry): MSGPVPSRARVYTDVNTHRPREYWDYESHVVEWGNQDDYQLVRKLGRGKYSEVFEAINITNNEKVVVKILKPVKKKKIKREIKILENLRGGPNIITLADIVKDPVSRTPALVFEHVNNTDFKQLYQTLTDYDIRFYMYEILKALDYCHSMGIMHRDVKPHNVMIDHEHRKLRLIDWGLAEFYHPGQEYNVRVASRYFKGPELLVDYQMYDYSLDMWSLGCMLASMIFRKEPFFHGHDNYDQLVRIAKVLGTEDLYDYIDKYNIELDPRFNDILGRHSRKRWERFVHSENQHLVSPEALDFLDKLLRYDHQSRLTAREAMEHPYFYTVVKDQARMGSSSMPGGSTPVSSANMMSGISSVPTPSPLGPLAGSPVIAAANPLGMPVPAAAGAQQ
# T1 sequence (P67870 whole entry partner): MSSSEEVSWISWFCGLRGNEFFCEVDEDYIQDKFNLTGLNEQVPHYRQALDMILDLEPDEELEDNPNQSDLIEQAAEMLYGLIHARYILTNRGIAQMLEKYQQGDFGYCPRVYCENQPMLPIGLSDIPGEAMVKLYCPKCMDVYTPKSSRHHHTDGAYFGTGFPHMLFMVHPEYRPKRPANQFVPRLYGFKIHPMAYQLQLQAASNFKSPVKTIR
# Protocol: Modulatory activity of compounds described herein was assessed in vitro in cell-free CK2 assays by the following method.
# Test compounds in aqueous solution were added at a volume of 10 microliters, to a reaction mixture comprising 10 microliters Assay Dilution Buffer (ADB; 20 mM MOPS, pH 7.2, 25 mM beta-glycerolphosphate, 5 mM EGTA, 1 mM sodium orthovanadate and 1 mM dithiothreitol), 10 microliters of substrate peptide (RRRDDDSDDD, dissolved in ADB at a concentration of 1 mM), 10 microliters of recombinant human CK2 (25 ng dissolved in ADB; Upstate). Reactions were initiated by the addition of 10 microliters of ATP Solution (90% 75 mM MgCl2, 75 micromolar ATP dissolved in ADB; 10% [γ-^33P]ATP (stock 1 mCi/100 μl; 3000 Ci/mmol (Perkin Elmer) and maintained for 10 minutes at 30 degrees C. The reactions were quenched with 100 microliters of 0.75% phosphoric acid, then transferred to and filtered through a phosphocellulose filter plate (Millipore). After washing each well 5 times with 0.75% phosphoric acid, the plate was dried under vacuum for 5 min and, following the addition of 15 ul of scintilation fluid to each well, the residual radioactivity was measured using a Wallac luminescence counter.
# MDA-MB45 = assay: Alamar Blue cell proliferation assay, MDA-MB45; format: cell-based
# Protocol: as §1, §2, §3, §4, §5, §6, §7, §8, §9, §10
# [5] = test system: BxPC3 human pancreatic adenocarcinoma cells; assay: Alamar Blue cell proliferation assay, BxPC3; format: cell-based; details: BXPC-3
# Protocol: as §1, §2, §3, §4, §5, §6, §7, §8, §9, §10
# [6] = test system: leukemic cells from AML patients; details: cited from earlier work
# MOLM-13 (AML) xenograft = MOLM-13 (AML) xenograft model; cited from earlier work
# MV-4-11 (AML) xenograft = MV-4-11 (AML) xenograft model; cited from earlier work
# [7] = 15 μM ATP, read-out: PIM1: IC50 (15 μM ATP)
"IC50 ([1]; K562, Table 4) [µM]",IC50 (MV-4-11; Table 4) [µM],inhibition at 0.5 µM (recombinant PIM-1) [%],IC50 (recombinant PIM-1; [7]) [µM],IC50 [2] [µM],IC50 [4] [µM],"IC50 ([1]; K562, Table 5) [µM]",IC50 (MV-4-11; Table 5) [µM],"IC50 (recombinant PIM-1; Table 5, read-out: PIM1 IC50) [µM]",IC50 (recombinant human PIM2) [µM],IC50 (recombinant human CK2) [µM],IC50 (MDA-MB45) [µM],IC50 [5] [µM],Structure (SMILES),IC50 (SUM-149PT) [µM],further results
> 10,1.21,50.5,0.504,> 10,–,–,–,–,–,–,–,–,Fc1ccc(Nc2nc3cc(-c4nnn[nH]4)ccc3n3cccc23)cc1Cl,–,IC50 [3]: > 10 µM
> 10,> 10,57.1,0.576,> 10,–,–,–,–,–,–,–,–,Clc1ccc(Nc2nc3cc(-c4nnn[nH]4)ccc3n3cccc23)cc1,–,IC50 [3]: > 10 µM
10.7,6.91,91.4,0.071,> 10,> 10,–,–,–,–,–,–,–,O=C(O)c1ccc2c(c1)nc(Nc1ccc(F)c(Cl)c1)c1cccn12,–,IC50 [3]: 12 µM
> 10,> 10,70,0.29,> 10,> 10,–,–,–,–,–,–,–,Fc1cccc(Nc2nc3cc(-c4nnn[nH]4)ccc3n3cccc23)c1,–,–
> 10,> 10,51.4,0.774,> 10,> 10,–,–,–,–,–,–,–,CN(c1ccccc1F)c1nc2cc(-c3nnn[nH]3)ccc2n2cccc12,–,–
5.52,3,10.3,–,1.24,9.65,–,–,–,–,–,–,–,N#Cc1ccc2c(c1)nc(NCCN1CCCC1)c1cccn12,–,–
5.24,2.73,20.1,–,1.29,8.31,–,–,–,–,–,–,–,CN(C)CCNc1nc2cc(C#N)ccc2n2cccc12,–,–
> 10,8.55,83.9,0.119,> 10,> 10,–,–,–,–,–,–,–,O=C(O)c1ccc2c(c1)nc(Nc1cc(F)cc(Cl)c1)c1cccn12,–,–
> 10,> 10,50.1,0.554,> 10,> 10,–,–,–,–,–,–,–,O=C(O)c1ccc2c(c1)nc(NCCn1cccc1)c1cccn12,–,–
> 10,> 10,52.9,0.419,> 10,> 30,–,–,–,–,–,–,–,O=C(O)c1ccc2c(c1)nc(NCC(F)(F)F)c1cccn12,–,IC50 [3]: > 10 µM
–,–,–,–,–,–,> 30,< 5,< 0.1,< 0.1,< 0.1,15.1,> 30,c1ccc(Nc2nc3c(-c4nnc[nH]4)cccc3n3cccc23)cc1,> 30,–
–,–,–,–,–,–,< 10,< 5,< 0.1,< 0.1,< 0.1,28.4,> 30,Fc1ccccc1Nc1nc2c(-c3nnc[nH]3)cccc2n2cccc12,22.8,–
–,–,–,–,–,–,< 10,< 5,< 0.1,< 0.1,< 0.1,15.7,10.2,Fc1ccc(Nc2nc3c(-c4nnc[nH]4)cccc3n3cccc23)c(F)c1,23.3,–
–,–,–,–,–,–,> 10,< 5,< 0.1,< 0.1,< 0.1,16,≥ 30,Clc1cccc(Nc2nc3c(-c4nnc[nH]4)cccc3n3cccc23)c1,21,–
–,–,–,–,–,–,> 10,< 5,< 0.1,< 0.1,< 1,28,≥ 30,Oc1cccc(Nc2nc3c(-c4nnc[nH]4)cccc3n3cccc23)c1,> 30,–
–,–,–,–,–,–,> 10,< 10,< 0.1,< 1,< 1,12,> 30,O=C(NC1CC1)c1cccc2c1nc(Nc1ccccc1F)c1cccn12,< 10,–
–,–,–,–,–,–,< 10,< 1,–,< 0.1,< 0.1,< 5,15.1,Fc1ccccc1Nc1nc2c(-c3nnc[nH]3)cccc2n2cncc12,< 10,–
–,–,–,–,–,–,–,–,–,–,–,–,–,CN(C)C[C@@H]1CCn2cc(c3ccccc32)C2=C(C(=O)NC2=O)c2cn(c3ccccc23)CCO1 [Ly5333′531],–,effect on cell growth and cell death [6]: suppressed cell growth and induced cell death
–,–,–,–,–,–,–,–,–,–,–,–,–,CN1CCC(CNc2ccc3ncc(-c4cccc(OC(F)(F)F)c4)n3n2)CC1 [SGI-1776],–,tumor regression (MOLM-13 (AML) xenograft): significant tumor regression; tumor regression (MV-4-11 (AML) xenograft): significant tumor regression
